Measurements as given in ChEMBL document CHEMBL1649470 (Antimicrob Agents Chemother, 2009).
Activity calls are given as the source filed them. The rule behind the calls is not given here.

How the values were obtained:
Influenza A virus [1] = experiment: Antiviral activity against Influenza A virus (A/Thailand/1(KAN-1)/2004(H5N1)) infected in BALB/c mouse assessed as decrease in viral load in lung at 20 mg/kg, po BID for 5 days measured on day 9 postinfection; assay type: functional, organism-based; parameters: dose 20 mg/kg
Influenza A virus [2] = experiment: Antiviral activity against Influenza A virus (A/chicken/Yogjakarta/BBVet-IX/2004(H5N1)) infected in BALB/c mouse assessed as virus-induced change body weight at 20 mg/kg, po BID for 5 days measured on day 9 postinfection; assay type: functional
Influenza A virus [3] = experiment: Antiviral activity against Influenza A virus (A/whooper swan/Mongolia/1/2009(H5N1)) infected in BALB/c mouse assessed as virus-induced change body weight at 20 mg/kg, po BID for 5 days measured on day 9 postinfection; assay type: functional
Influenza A virus [4] = experiment: Antiviral activity against Influenza A virus (A/duck/Laos/25/2006(H5N1)) infected in BALB/c mouse assessed as virus-induced change body weight at 20 mg/kg, po BID for 5 days measured on day 9 postinfection; assay type: functional
Influenza A virus [5] = experiment: Antiviral activity against Influenza A virus (A/Thailand/1(KAN-1)/2004(H5N1)) infected in BALB/c mouse assessed as virus-induced change body weight at 20 mg/kg, po BID for 5 days measured on day 15 postinfection; assay type: functional
Influenza A virus [6] = experiment: Antiviral activity against Influenza A virus (A/duck/Laos/25/2006(H5N1)) infected in BALB/c mouse assessed as decrease in viral load in lung at 20 mg/kg, po BID for 5 days measured on day 3 postinfection; assay type: functional, organism-based; parameters: dose 20 mg/kg
Influenza A virus [7] = experiment: Antiviral activity against Influenza A virus (A/chicken/Yogjakarta/BBVet-IX/2004(H5N1)) infected in BALB/c mouse assessed as virus-induced change body weight at 20 mg/kg, po BID for 5 days measured on day 15 postinfection; assay type: functional
Influenza A virus [8] = experiment: Antiviral activity against Influenza A virus (A/whooper swan/Mongolia/1/2009(H5N1)) infected in BALB/c mouse assessed as virus-induced change body weight at 20 mg/kg, po BID for 5 days measured on day 15 postinfection; assay type: functional
Influenza A virus [9] = experiment: Antiviral activity against Influenza A virus (A/duck/Laos/25/2006(H5N1)) infected in BALB/c mouse assessed as virus-induced change body weight at 20 mg/kg, po BID for 5 days measured on day 15 postinfection; assay type: functional
Influenza A virus [10] = experiment: Antiviral activity against Influenza A virus (A/chicken/Yogjakarta/BBVet-IX/2004(H5N1)) infected in BALB/c mouse assessed as decrease in viral load in lung at 20 mg/kg, po BID for 5 days measured on day 9 postinfection; assay type: functional, organism-based; parameters: dose 20 mg/kg
Influenza A virus [11] = experiment: Antiviral activity against Influenza A virus (A/whooper swan/Mongolia/1/2009(H5N1)) infected in BALB/c mouse assessed as decrease in viral load in lung at 20 mg/kg, po BID for 5 days measured on day 9 postinfection; assay type: functional, organism-based; parameters: dose 20 mg/kg
Influenza A virus [12] = experiment: Antiviral activity against Influenza A virus (A/Thailand/1(KAN-1)/2004(H5N1)) infected in BALB/c mouse assessed as decrease in viral load in lung at 20 mg/kg, po BID for 5 days measured on day 6 postinfection; assay type: functional, organism-based; parameters: dose 20 mg/kg
Influenza A virus [13] = experiment: Antiviral activity against Influenza A virus (A/duck/Laos/25/2006(H5N1)) infected in BALB/c mouse assessed as decrease in viral load in brain at 20 mg/kg, po BID for 5 days measured on day 9 postinfection; assay type: functional, organism-based; parameters: dose 20 mg/kg
Influenza A virus [14] = experiment: Antiviral activity against Influenza A virus (A/Thailand/1(KAN-1)/2004(H5N1)) infected in BALB/c mouse assessed as decrease in viral load in brain at 20 mg/kg, po BID for 5 days measured on day 9 postinfection; assay type: functional, organism-based; parameters: dose 20 mg/kg
Influenza A virus [15] = experiment: Antiviral activity against Influenza A virus (A/chicken/Yogjakarta/BBVet-IX/2004(H5N1)) infected in BALB/c mouse assessed as decrease in viral load in brain at 20 mg/kg, po BID for 5 days measured on day 9 postinfection; assay type: functional, organism-based; parameters: dose 20 mg/kg
Influenza A virus [16] = experiment: Antiviral activity against Influenza A virus (A/whooper swan/Mongolia/1/2009(H5N1)) infected in BALB/c mouse assessed as decrease in viral load in brain at 20 mg/kg, po BID for 5 days measured on day 3 postinfection; assay type: functional, organism-based; parameters: dose 20 mg/kg
Influenza A virus [17] = experiment: Antiviral activity against Influenza A virus (A/whooper swan/Mongolia/1/2009(H5N1)) infected in BALB/c mouse assessed as decrease in viral load in brain at 20 mg/kg, po BID for 5 days measured on day 6 postinfection; assay type: functional, organism-based; parameters: dose 20 mg/kg
Influenza A virus [18] = experiment: Antiviral activity against Influenza A virus (A/whooper swan/Mongolia/1/2009(H5N1)) infected in BALB/c mouse assessed as decrease in viral load in brain at 20 mg/kg, po BID for 5 days measured on day 9 postinfection; assay type: functional, organism-based; parameters: dose 20 mg/kg
Influenza A virus [19] = experiment: Antiviral activity against Influenza A virus (A/Thailand/1(KAN-1)/2004(H5N1)) infected in BALB/c mouse assessed as survival rate at 20 mg/kg, po BID for 5 days measured post last dose; assay type: functional; conditions: 120 h
Influenza A virus [20] = conditions: 120 h, route oral
Influenza A virus [21] = experiment: Antiviral activity against Influenza A virus (A/chicken/Yogjakarta/BBVet-IX/2004(H5N1)) infected in BALB/c mouse assessed as survival rate at 20 mg/kg, po BID for 5 days measured post last dose; assay type: functional; conditions: 120 h
Influenza A virus [22] = experiment: Antiviral activity against Influenza A virus (A/whooper swan/Mongolia/1/2009(H5N1)) infected in BALB/c mouse assessed as survival rate at 20 mg/kg, po BID for 5 days measured post last dose; assay type: functional; conditions: 120 h
Influenza A virus [23] = experiment: Antiviral activity against Influenza A virus (A/duck/Laos/25/2006(H5N1)) infected in BALB/c mouse assessed as survival rate at 20 mg/kg, po BID for 5 days measured post last dose; assay type: functional; conditions: 120 h
Influenza A virus [24] = experiment: Antiviral activity against Influenza A virus (A/Thailand/1(KAN-1)/2004(H5N1)) infected in BALB/c mouse assessed as mean day to death at 20 mg/kg, po BID for 5 days measured post last dose; assay type: functional
Influenza A virus [25] = conditions: dose 20 mg/kg; route oral
Influenza A virus [26] = experiment: Antiviral activity against Influenza A virus (A/chicken/Yogjakarta/BBVet-IX/2004(H5N1)) infected in BALB/c mouse assessed as mean day to death at 20 mg/kg, po BID for 5 days measured post last dose; assay type: functional
Influenza A virus [27] = experiment: Antiviral activity against Influenza A virus (A/whooper swan/Mongolia/1/2009(H5N1)) infected in BALB/c mouse assessed as mean day to death at 20 mg/kg, po BID for 5 days measured post last dose; assay type: functional
Influenza A virus [28] = experiment: Antiviral activity against Influenza A virus (A/duck/Laos/25/2006(H5N1)) infected in BALB/c mouse assessed as mean day to death at 20 mg/kg, po BID for 5 days measured post last dose; assay type: functional
Influenza A virus [29] = experiment: Antiviral activity against Influenza A virus (A/Thailand/1(KAN-1)/2004(H5N1)) infected in BALB/c mouse assessed as virus-induced change body weight at 20 mg/kg, po BID for 5 days measured on day 6 postinfection; assay type: functional
Influenza A virus [30] = conditions: dose 20 mg/kg; route oral; remark: listed apart in the source
Influenza A virus [31] = experiment: Antiviral activity against Influenza A virus (A/chicken/Yogjakarta/BBVet-IX/2004(H5N1)) infected in BALB/c mouse assessed as virus-induced change body weight at 20 mg/kg, po BID for 5 days measured on day 6 postinfection; assay type: functional
Influenza A virus [32] = experiment: Antiviral activity against Influenza A virus (A/whooper swan/Mongolia/1/2009(H5N1)) infected in BALB/c mouse assessed as virus-induced change body weight at 20 mg/kg, po BID for 5 days measured on day 6 postinfection; assay type: functional
Influenza A virus [33] = experiment: Antiviral activity against Influenza A virus (A/duck/Laos/25/2006(H5N1)) infected in BALB/c mouse assessed as virus-induced change body weight at 20 mg/kg, po BID for 5 days measured on day 6 postinfection; assay type: functional
Influenza A virus [34] = experiment: Antiviral activity against Influenza A virus (A/Thailand/1(KAN-1)/2004(H5N1)) infected in BALB/c mouse assessed as virus-induced change body weight at 20 mg/kg, po BID for 5 days measured on day 9 postinfection; assay type: functional

In the case of CCOC(=O)C1=C[C@@H](OC(CC)CC)[C@H](NC(C)=O)[C@@H](N)C1 [OSELTAMIVIR], the Activity (Influenza A virus [1]) is reported as “Active”, the Activity (Influenza A virus [2]) is reported as -11.2% and the Activity (Influenza A virus [3]) is reported as -18.2%. The Activity (Influenza A virus [4]) was -20.3%, the Activity (Influenza A virus [5]) was -2.1% and the inhibition (Influenza A virus [6]) was “Active”. For the same compound, the Activity (Influenza A virus [7]) was 1.2%, the Activity (Influenza A virus [8]) was -10.6% and the Activity (Influenza A virus [9]) was -7.6%. The Activity (Influenza A virus [10]) was “Active”, the Activity (Influenza A virus [11]) was “Active” and the Activity (Influenza A virus [12]) was “Active”. For the same compound, the Activity (Influenza A virus [13]) was “Active”, the Activity (Influenza A virus [14]) was “inactive” and the Activity (Influenza A virus [15]) was “Active”. For the same compound, the Activity (Influenza A virus [16]) was “inactive”, the Activity (Influenza A virus [17]) was “inactive” and the Activity (Influenza A virus [18]) was “inactive”. For the same compound, the survival at 20 mg/kg (Influenza A virus [19]) was 80%, the survival at 20 mg/kg (Influenza A virus [20]) was 0% and the survival at 20 mg/kg (Influenza A virus [21]) was 100%. For the same compound, the survival at 20 mg/kg (Influenza A virus [22]) was 70%, the survival at 20 mg/kg (Influenza A virus [23]) was 60% and the Time (Influenza A virus [24]) was 10 days. For the same compound, the Time (Influenza A virus [25]) was 8 days, the Time (Influenza A virus [26]) was greater than 21 days and the Time (Influenza A virus [27]) was 9.7 days. The Time (Influenza A virus [28]) was 13.5 days, the Activity (Influenza A virus [29]) was -10.7% and the Activity (Influenza A virus [30]) was -24.4%. It also gave an Activity (Influenza A virus [31]) of -22%, an Activity (Influenza A virus [32]) of -7% and an Activity (Influenza A virus [33]) of -0.2%. For the same compound, the Activity (Influenza A virus [34]) was -17.6%.
